Measured values as given in patent US20240058337A1, “Managing Side Effects in T Cell Therapy” (Innovative Cellular Therapeutics Holdings, Ltd., priority 2022, published 2024).

Legend:
Assay type in all cases: in vivo, human
[1] = tested on: colorectal cancer (CRC) patients; test: Clinical trial of mixed population of cells including GCC CAR T cells: diarrhea side effect and its management
Description: (§1) This system was implemented in a clinical trial involving 35 colorectal cancer (CRC) patients, which were treated with mixed population of cells including GCC CAR T cells. Diarrhea, a common side effect, typically presented as early as day 7 (median=9, range 7-15) at a grade two severity or higher. The primary treatment for this was immediate administration of infliximab and, in some cases, dasatinib.
(§2) For the 1×10^6 CAR T/kg of body weight dose, half of the patients managed their diarrhea through supportive care and antidiarrheal medication. Around 85% experienced grade 2 or higher diarrhea, 67% of whom responded well to a single dose of infliximab. At a higher dose of 2×10^6 CAR T/kg bodyweight, only 13% of patients could control diarrhea with supportive care or antidiarrheal drugs, and all patients experienced a grade 2 or higher diarrhea, but only 43% responded to a single infliximab dose. […] In such cases, dasatinib was administered at 100 mg/day for over ten consecutive days until the patient's side effects reduced to grade 1 or less, and the patient was ready for discharge.

[2] = tested on: colorectal cancer (CRC) patients; test: Clinical trial: response and disease control to CAR T therapy with or without dasatinib; conditions: patients who got dasatinib
Description: as §1, §2

[3] = tested on: Cytokine Release Syndrome (CRS); test: Cytokine Release Syndrome (CRS) management after CAR T therapy; conditions: grade 2 fever not resolved within 6 hours with conventional antipyretic methods
Description: This fever typically occurs earliest on day 3 (median is day 5, range is day 3-12). Tocilizumab administration results in remission in 90% of cases. However, if 24 hours after administering tocilizumab, the patient still presents with a grade 2 or higher fever or a refractory fever, treatment with corticosteroids should be initiated following ASCO guidelines. The remaining 10% of patients typically responds well to corticosteroids. If there is no improvement within 24 hours after this step, the administration of dasatinib at 100 mg once daily for 2-3 days can be administered.

In the case of infliximab, the “patients with grade 2 or higher diarrhea who responded well to a single dose of infliximab” value ([1]; 1×10^6 CAR T/kg of body weight) is reported as 67%, the “patients with grade 2 or higher diarrhea who responded to a single infliximab dose” value ([1]; 2×10^6 CAR T/kg bodyweight) is reported as 43% and the “patients who benefitted from a single dose of infliximab” value ([1]; 3×10^6 CAR T/kg body weight) is reported as “fewer patients benefitted”.

With `Cc1nc(Nc2ncc(C(=O)Nc3c(C)cccc3Cl)s2)cc(N2CCN(CCO)CC2)n1` [dasatinib] the “Disease Control Rate” value ([2]; 1 million cells/kg) was 33.3%, the “Response Rate to CAR T Therapy” value ([2]; 1 million cells/kg) was 0% and the “Disease Control Rate” value ([2]; 2 million+ cells/kg) was 75%. For the same compound, the “Response Rate to CAR T Therapy” value ([2]; 2 million+ cells/kg) was 50%.

For Tocilizumab, the “remission of grade 2 fever (CRS) after tocilizumab administration, cases” value [3] was 90%.
